Values of other authors, collected in patent publication US12728131B2, “Compositions for the treatment of glaucoma and ocular hypertension” (Nicox S.A., priority 2020, dated 2026).
Read-outs that look alike come from different tables or passages of the source.

Details: phase 2 dose-ranging VOYAGER study

| Structure (SMILES) | reduction in mean diurnal IOP (0.024%) [mmHg] | reduction in mean diurnal IOP (0.005%) [mmHg] |
| --- | --- | --- |
| O=C(CCC/C=C\C[C@@H]1[C@@H](CC[C@@H](O)CCc2ccccc2)[C@H](O)C[C@@H]1O)OCCCCO[N+](=O)[O-] [latanoprostene bunod] | 9.0 | – |
| CC(C)OC(=O)CCC/C=C\C[C@@H]1[C@@H](CC[C@@H](O)CCc2ccccc2)[C@H](O)C[C@@H]1O [latanoprost, propan-2-yl (Z)-7-[(1R,2R,3R,5S)-3,5-dihydroxy-2-[(3R)-3-hydroxy-5-phenylpentyl]cyclopentyl]hept-5-enoate] | – | 7.77 |
